#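 The compound was tested at five concentrations on cells cultured in 96-well plates, with a 48-hour exposure period. At the GI50, growth is halved. TGI marks complete inhibition of growth.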 Where a SMILES comes first, the peptide text is derived from it. The star is where a group is joined. Boc = CC(C)(C)OC(=O)*; OBn = c1ccc(CO*)cc1
# Tests used:
# Experiment in all cases: NCI anticancer screen, dose series, 48 h
# HCT-15 colon = test system: HCT-15 colon
# MCF7 breast = test system: MCF7 breast
# MOLT-4 leukemia = test system: MOLT-4 leukemia
# NCI/ADR-RES ovarian = test system: NCI/ADR-RES ovarian
# SF-268 CNS = test system: SF-268 CNS
# EKVX NSCLC = test system: EKVX NSCLC
# OVCAR-5 ovarian = test system: OVCAR-5 ovarian
# HL-60(TB) leukemia = test system: HL-60(TB) leukemia
# SF-539 CNS = test system: SF-539 CNS
# SNB-75 CNS = test system: SNB-75 CNS
# SR leukemia = test system: SR leukemia
# CCRF-CEM leukemia = test system: CCRF-CEM leukemia
# K-562 leukemia = test system: K-562 leukemia
# RPMI-8226 leukemia = test system: RPMI-8226 leukemia
# MDA-MB-435 = test system: MDA-MB-435
# NCI-H226 lung = test system: NCI-H226 lung
# NCI-H23 lung = test system: NCI-H23 lung
# HCT-116 colon = test system: HCT-116 colon
# COLO 205 colon = test system: COLO 205 colon
# A549 NSCLC = test system: A549 NSCLC
# U251 CNS = test system: U251 CNS
# CAKI-1 renal = test system: CAKI-1 renal
# UACC-62 melanoma = test system: UACC-62 melanoma
# HT29 colon = test system: HT29 colon
# SF-295 CNS = test system: SF-295 CNS
# T-47D breast = test system: T-47D breast
# HOP-62 NSCLC = test system: HOP-62 NSCLC
# UACC-257 melanoma = test system: UACC-257 melanoma
# SK-MEL-28 melanoma = test system: SK-MEL-28 melanoma
# UO-31 renal = test system: UO-31 renal
# M14 melanoma = test system: M14 melanoma
# KM12 colon = test system: KM12 colon
# HS 578T breast = test system: HS 578T breast
# IGROV1 ovarian = test system: IGROV1 ovarian
# TK-10 renal = test system: TK-10 renal
# 786-0 renal = test system: 786-0 renal
# MDA-MB-231 breast = test system: MDA-MB-231 breast
# OVCAR-3 ovarian = test system: OVCAR-3 ovarian
# MALME-3M melanoma = test system: MALME-3M melanoma
# SN12C renal = test system: SN12C renal
# SNB-19 CNS = test system: SNB-19 CNS
# ACHN renal = test system: ACHN renal
# SW-620 colon = test system: SW-620 colon
# NCI-H460 lung = test system: NCI-H460 lung
# A498 renal = test system: A498 renal
# NCI-H522 lung = test system: NCI-H522 lung
# OVCAR-4 ovarian = test system: OVCAR-4 ovarian
# HOP-92 NSCLC = test system: HOP-92 NSCLC
# OVCAR-8 ovarian = test system: OVCAR-8 ovarian
# PC-3 prostate = test system: PC-3 prostate
# RXF 393 renal = test system: RXF 393 renal
# BT-549 breast = test system: BT-549 breast
# DU-145 prostate = test system: DU-145 prostate
structure (smiles),measurement,setting,value
Cc1ccc(S(=O)(=O)N2CCN3CCN(CCN(C)CCN4CCN(CC4)CCN(S(=O)(=O)c4ccc(C)cc4)CCN(S(=O)(=O)c4ccc(C)cc4)CCN(S(=O)(=O)c4ccc(C)cc4)CCN(S(=O)(=O)c4ccc(C)cc4)CCN4CCN(CCN(C)CCN5CCN(CC5)CCN(S(=O)(=O)c5ccc(C)cc5)CCN(S(=O)(=O)c5ccc(C)cc5)CCN(S(=O)(=O)c5ccc(C)cc5)CC2)CC4)CC3)cc1,TGI,HCT-15 colon,2.82 µM
same,TGI,MCF7 breast,3.3 µM
same,TGI,MOLT-4 leukemia,2.91 µM
same,TGI,NCI/ADR-RES ovarian,> 100 µM
same,TGI,SF-268 CNS,6.62 µM
same,TGI,EKVX NSCLC,5.82 µM
same,TGI,OVCAR-5 ovarian,3.42 µM
same,TGI,HL-60(TB) leukemia,2.7 µM
same,TGI,SF-539 CNS,4.45 µM
same,TGI,SNB-75 CNS,5.58 µM
same,TGI,SR leukemia,10.6 µM
same,TGI,CCRF-CEM leukemia,0.972 µM
same,TGI,K-562 leukemia,11 µM
same,TGI,RPMI-8226 leukemia,11.9 µM
COc1cccc2c1C(=O)c1c(O)c3c(c(O)c1C2=O)C[C@@](O)(/C(C)=N/NC(=O)c1ccc(Cl)c(Cl)c1)C[C@@H]3OC1CC(N)C(O)C(C)O1 (stereo not given in full),TGI,MDA-MB-435,1.11 µM
same,TGI,NCI-H226 lung,0.231 µM
same,TGI,NCI-H23 lung,0.618 µM
same,TGI,HCT-15 colon,1.16 µM
same,TGI,HCT-116 colon,1.04 µM
same,TGI,COLO 205 colon,1.5 µM
same,TGI,A549 NSCLC,2.68 µM
same,TGI,U251 CNS,0.363 µM
same,TGI,CAKI-1 renal,0.562 µM
same,TGI,UACC-62 melanoma,0.34 µM
same,TGI,HT29 colon,0.379 µM
same,TGI,SF-295 CNS,0.527 µM
same,TGI,T-47D breast,> 100 µM
same,TGI,MCF7 breast,> 100 µM
same,TGI,HOP-62 NSCLC,1.28 µM
same,TGI,NCI/ADR-RES ovarian,2.84 µM
same,TGI,EKVX NSCLC,7.4 µM
same,TGI,UACC-257 melanoma,1.05 µM
same,TGI,OVCAR-5 ovarian,0.686 µM
same,TGI,HL-60(TB) leukemia,0.397 µM
same,TGI,SK-MEL-28 melanoma,0.274 µM
same,TGI,UO-31 renal,> 100 µM
same,TGI,M14 melanoma,1.2 µM
same,TGI,KM12 colon,0.624 µM
same,TGI,HS 578T breast,3.18 µM
same,TGI,IGROV1 ovarian,> 100 µM
same,TGI,SNB-75 CNS,2.02 µM
same,TGI,TK-10 renal,1.83 µM
same,TGI,786-0 renal,2.1 µM
same,TGI,MDA-MB-231 breast,2.51 µM
same,TGI,OVCAR-3 ovarian,0.934 µM
same,TGI,MALME-3M melanoma,0.0838 µM
same,TGI,K-562 leukemia,1.06 µM
same,TGI,SN12C renal,0.877 µM
same,TGI,SNB-19 CNS,0.445 µM
same,TGI,ACHN renal,0.256 µM
same,TGI,SW-620 colon,1.35 µM
same,TGI,NCI-H460 lung,> 100 µM
CC(C)CC(NC(=O)OC(C)(C)C)C(=O)NC(CCC(=O)OCc1ccccc1)C(N)=O (stereo not drawn) (Boc-Leu-Glu(OBn)-NH2; configuration not given here),GI50,A498 renal,45.5 µg/mL
same,GI50,NCI-H522 lung,29.4 µg/mL
same,GI50,COLO 205 colon,87.1 µg/mL
same,GI50,UACC-62 melanoma,47.9 µg/mL
same,GI50,OVCAR-4 ovarian,34.8 µg/mL
same,GI50,UACC-257 melanoma,20.1 µg/mL
same,TGI,UACC-257 melanoma,85.9 µg/mL
same,GI50,SK-MEL-28 melanoma,20.8 µg/mL
same,TGI,SK-MEL-28 melanoma,51.4 µg/mL
same,GI50,UO-31 renal,85.5 µg/mL
same,GI50,M14 melanoma,32.7 µg/mL
same,GI50,SNB-75 CNS,32.7 µg/mL
same,GI50,MALME-3M melanoma,32.2 µg/mL
same,GI50,K-562 leukemia,54.1 µg/mL
same,GI50,RPMI-8226 leukemia,43.9 µg/mL
Cc1cc(C)c(NS(=O)c2cccc([N+](=O)[O-])c2)c(C)c1 (stereo not given),TGI,MDA-MB-435,> 100 µM
same,TGI,NCI-H226 lung,> 100 µM
same,TGI,A498 renal,> 100 µM
same,TGI,HOP-92 NSCLC,> 100 µM
same,TGI,NCI-H23 lung,> 100 µM
same,TGI,HCT-15 colon,> 100 µM
same,TGI,COLO 205 colon,> 100 µM
same,TGI,OVCAR-8 ovarian,> 100 µM
same,TGI,A549 NSCLC,> 100 µM
same,TGI,U251 CNS,> 100 µM
same,TGI,HT29 colon,> 100 µM
same,TGI,SF-295 CNS,> 100 µM
same,TGI,T-47D breast,> 100 µM
same,TGI,MCF7 breast,> 100 µM
same,TGI,HOP-62 NSCLC,> 100 µM
same,TGI,MOLT-4 leukemia,> 100 µM
same,TGI,NCI/ADR-RES ovarian,> 100 µM
same,TGI,SF-268 CNS,> 100 µM
same,TGI,UACC-257 melanoma,> 100 µM
same,TGI,OVCAR-5 ovarian,> 100 µM
same,TGI,PC-3 prostate,> 100 µM
same,TGI,HL-60(TB) leukemia,> 100 µM
same,TGI,SF-539 CNS,> 100 µM
same,TGI,SK-MEL-28 melanoma,> 100 µM
same,TGI,UO-31 renal,> 100 µM
same,TGI,RXF 393 renal,> 100 µM
same,TGI,M14 melanoma,> 100 µM
same,TGI,KM12 colon,> 100 µM
same,TGI,BT-549 breast,> 100 µM
same,TGI,TK-10 renal,> 100 µM
same,TGI,786-0 renal,> 100 µM
same,TGI,SR leukemia,> 100 µM
same,TGI,OVCAR-3 ovarian,> 100 µM
same,TGI,MALME-3M melanoma,> 100 µM
same,TGI,CCRF-CEM leukemia,> 100 µM
same,TGI,K-562 leukemia,> 100 µM
same,TGI,SN12C renal,> 100 µM
same,TGI,DU-145 prostate,> 100 µM
same,TGI,SNB-19 CNS,> 100 µM
same,TGI,RPMI-8226 leukemia,> 100 µM
same,TGI,ACHN renal,> 100 µM
same,TGI,SW-620 colon,> 100 µM
same,TGI,NCI-H460 lung,> 100 µM

# From PubChem BioAssay (NCI)
